Source: patent EP0407137B1, “Benzazine compounds and pharmaceutical uses thereof” (priority 1989, dated 1991)
Counter-ions that a name gives are not always drawn.

How the values were obtained:
5-HT₃ receptor = assay: Antagonistic effect against von Bezold-Jarish reflex caused by serotonin in anesthetized rats; format: in vivo, Male Wistar rats; details: i.v., 5 minutes before serotonin (20 µg/kg i.v.), dose required to antagonize the reflex bradycardia by 50%
Method: 5-HT₃ receptor blocking effects of the compounds of the present invention were evaluated based on the antagonistic effects against van Bezold-Jarish reflex caused by administering serotonin to anesthetized rats as an index according to Forzard's method described in Naunyuschmiedeberg's Arch. Pharmacol., vol.326, pp36, 1984.
Male Wistar rats weighing 350-450 g were anesthetized with an intraperitoneal injection of 1.25g/kg of urethane. The left jugular vein was cannulated for the intravenous injection and the left femoral […] was cannulated for the measurement of blood pressure and heart rate. Serotonin (20 µg/kg) was intravenously injected, and the compounds of the present invention were intravenously injected 5 minutes before the challenge with serotonin. The antagonistic activity of the compounds of the present invention against the caused reflex bradycardia was measured and the effective dose (ED₅₀, µg/kg), the dose required to antagonize the maximum activity by 50%, was determined.

[1] = target: T1, serotonin 1A (5-HT1A) receptor (Rattus norvegicus, UniProt P19327); assay: Serotonin binding test (tritium 8-OH-DPAT, crude synaptosome fraction from hippocampus); set-up: species or system Wistar rat; details: tritium 8-OH-DPAT 0.2 nM, 37°C for 12 minutes, rat hippocampus synaptosomes; read-out: Serotonin binding test IC₅₀
T1 sequence (P19327 1-422): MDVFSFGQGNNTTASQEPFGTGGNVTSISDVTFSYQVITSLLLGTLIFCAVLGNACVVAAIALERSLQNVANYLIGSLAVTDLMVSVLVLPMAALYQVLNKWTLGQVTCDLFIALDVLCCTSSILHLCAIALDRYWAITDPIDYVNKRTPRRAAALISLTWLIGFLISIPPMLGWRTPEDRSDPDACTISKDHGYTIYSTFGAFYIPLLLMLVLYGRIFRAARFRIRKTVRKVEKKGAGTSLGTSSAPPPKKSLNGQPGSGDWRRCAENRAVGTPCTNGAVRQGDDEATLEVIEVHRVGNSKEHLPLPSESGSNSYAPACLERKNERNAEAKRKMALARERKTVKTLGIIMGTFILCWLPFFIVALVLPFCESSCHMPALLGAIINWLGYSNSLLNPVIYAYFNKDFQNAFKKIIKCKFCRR
Method: Specific serotonin 1A (5-HT1A) receptor binding test was conducted in accordance with the manner described in Journal of the Neurochemistry, vol.44, page 1685, 1985.
Crude synaptosome fraction was separated from hippocampus of 9 to 10 weeks-aged Wistar rat and suspended into 50 mM tris-hydrochloric acid buffer solution (pH 7.4) containing 1 mM manganese chloride.
Next, to the resulting synaptosome suspension were added the test compound of the present invention at several concentrations and tritium 8-OH-DPAT at the terminal concentration of 0.2 nM, and the mixture was allowed to react at 37°C for 12 minutes. After completion of the reaction, the reaction mixture was suction filtered through Whatman GF/B glass filter. The glass filter was washed with 50 mM tris-hydrochloric acid buffer solution (pH 7.4), and then the radioactivity of the residue remaining on the glass filter was measured by liquid scintillation counter. Non-specific binding was determined under the presence of 10⁻⁵M serotonin (5-HT). 50% Inhibition concentration (IC₅₀) of test compound was graphically determined.

dopamine D₂ receptor = target: T2, dopamine D₂ receptor (Rattus norvegicus, UniProt P61169); assay: Dopamine D₂ binding test (tritium Spiperone, crude synaptosome fraction from corpus striatum); set-up: species or system Wistar rats; details: tritium Spiperone 0.2 nM, 37°C for 20 minutes, rat corpus striatum synaptosomes; read-out: Dopamine D₂ binding test IC₅₀
T2 construct: Crude synaptosome fraction was separated from corpus striatum of 9 to 10 weeks-aged Wistar rats; from tissue; host or cells: rat corpus striatum, crude synaptosome fraction
T2 sequence (P61169 whole entry): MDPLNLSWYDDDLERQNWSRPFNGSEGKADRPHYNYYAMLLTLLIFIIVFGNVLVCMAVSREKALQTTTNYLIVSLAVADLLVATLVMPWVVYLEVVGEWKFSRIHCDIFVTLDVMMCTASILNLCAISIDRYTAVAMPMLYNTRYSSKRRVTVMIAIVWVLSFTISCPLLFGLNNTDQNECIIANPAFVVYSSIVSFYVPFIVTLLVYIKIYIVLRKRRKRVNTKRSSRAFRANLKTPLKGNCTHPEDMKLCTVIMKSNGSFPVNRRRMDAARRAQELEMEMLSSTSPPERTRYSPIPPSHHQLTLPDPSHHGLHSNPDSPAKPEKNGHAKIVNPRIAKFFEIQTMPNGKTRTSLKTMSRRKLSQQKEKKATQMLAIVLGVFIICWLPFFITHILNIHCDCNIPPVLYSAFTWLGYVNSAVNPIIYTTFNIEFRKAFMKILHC
Method: Crude synaptosome fraction was separated from corpus striatum of 9 to 10 weeks-aged Wistar rats and suspended into 50 mM tris-hydrochloric acid buffer solution (pH 7.1) containing 120 mM sodium chloride, 5 mM potassium chloride, 2 mM calcium chloride, 1 mM magnesium chloride, 10 µM pargyline and 0.1% ascorbic acid. Next, to the resulting synaptosome suspension were added the test compound of the present invention at several concentrations and tritium Spiperone at the terminal concentration of 0.2 nM, and the mixture was allowed to react at 37°C for 20 minutes. After completion of the reaction, the reaction mixture was suction filtered through Whatman GF/B glass filter. The glass filter was washed with 50 mM tris-hydrochloric acid buffer solution (pH 7.7), and then the radioactivity of the residue remaining on the glass filter was measured by liquid scintillation counter. Non-specific binding was determined under the presence of […]. 50% Inhibition concentration (IC₅₀) of the test compound was graphically determined.

SMILES | ED₅₀ (5-HT₃ receptor) [µg/kg] | IC50 [1] [nM] | IC50 (dopamine D₂ receptor) [nM]
CN1CCOc2c(C(=O)NC3CN4CCC3CC4)cc(Cl)cc21.Cl (centres unmarked) [Example 1, 6-chloro-4-methyl-N-(3-quinuclidinyl)-3,4-dihydro-2H-1,4-benzoxazine-8-carboxamide hydrochloride] | 0.28 |  | 
CN1CC(C)(C)Oc2c(C(=O)NC3CN4CCC3CC4)cc(Cl)cc21.Cl (centres unmarked) [Example 3, 6-chloro-2,2,4-trimethyl-N-(3-quinuclidinyl)-3,4-dihydro-2H-1,4-benzoxazine-8-carboxamide hydrochloride] | 0.12 |  | 
CN1CC(C)(C)Oc2c(C(=O)N[C@H]3CN4CCC3CC4)cc(Cl)cc21.Cl [Example 4, (R)-6-chloro-2,2,4-trimethyl-N-(3-quinuclidinyl)-3,4-dihydro-2H-1,4-benzoxazine-8-carboxamide hydrochloride] | 0.17 |  | 
CN1CC(C)(C)Oc2c(C(=O)N[C@@H]3CN4CCC3CC4)cc(Cl)cc21.Cl [Example 5, (S)-6-chloro-2,2,4-trimethyl-N-(3-quinuclidinyl)-3,4-dihydro-2H-1,4-benzoxazine-8-carboxamide hydrochloride] | 0.11 |  | 
CN1CCOc2c(C(=O)N[C@H]3CN4CCC3CC4)cc(Cl)cc21 [Example 7, (R)-6-chloro-4-methyl-N-(3-quinuclidinyl)-3,4-dihydro-2H-1,4-benzoxazine-8-carboxamide] | 0.73 |  | 
CCN1CCCC1CNC(=O)c1cc(Cl)cc2c1OCCN2C (centres unmarked) [Example 13, 6-chloro-4-methyl-N-[(1-ethyl-2-pyrrolidinyl)methyl]-3,4-dihydro-2H-1,4-benzoxazine-8-carboxamide hydrochloride] |  | 750 | 
CCCCN1CCCC1CNC(=O)c1cc(Cl)cc2c1OCCN2C (centres unmarked) [Example 14, 6-chloro-4-methyl-N-[(1-butyl-2-pyrrolidinyl)-methyl]-3,4-dihydro-2H-1,4-benzoxazine-8-carboxamide hydrochloride] |  | 62 | 
CCCCCCCCCN1CCC[C@@H]1CNC(=O)c1cc(Cl)cc2c1OCCN2C [Example 38, (R)-(+)-6-chloro-4-methyl-N-[(1-nonyl-2-pyrrolidinyl)methyl]-3,4-dihydro-2H-1,4-benzoxazine-8-carboxamide] |  | 24 | 690
CCCCN1CCC[C@@H]1CNC(=O)c1cc(Cl)cc2c1OCCN2C [Example 39, (R)-(+)-N-[(1-butyl-2-pyrrolidinyl)methyl]-6-chloro-4-methyl-3,4-dihydro-2H-1,4-benzoxazine-8-carboxamide] |  | 420 | 630
